Data taken from patent US11078228B2, “Ectonucleotidase inhibitors and methods of use thereof” (Calithera Biosciences, Inc., priority 2018, dated 2021).

target: recombinant CD73 (Homo sapiens (Human), UniProt P21589); assay: Assay 2: Inhibition of the CD73 enzyme in vitro (0.05 nM CD73, 1 hour 37° C., Malachite Green); assay type: biochemical; conditions: 0.05 nM CD73, 50 μM AMP, 1 hour at 37° C.
Experimental: For measurements of soluble CD73 enzyme activity, recombinant CD73 was obtained from R&D Systems, Cat. No. 5795-EN-010. […] Reactions were allowed to proceed for 1 hour at 37° C. before the addition of 100 μL Malachite Green (Cell Signaling Technology, Cat. No. 12776). After 5 minutes at room temperature, absorbance at 630 nm was determined on a microplate spectrophotometer. The concentration of inorganic phosphate was determined using a phosphate standard curve.

recombinant CD73, sequence (P21589 27-547): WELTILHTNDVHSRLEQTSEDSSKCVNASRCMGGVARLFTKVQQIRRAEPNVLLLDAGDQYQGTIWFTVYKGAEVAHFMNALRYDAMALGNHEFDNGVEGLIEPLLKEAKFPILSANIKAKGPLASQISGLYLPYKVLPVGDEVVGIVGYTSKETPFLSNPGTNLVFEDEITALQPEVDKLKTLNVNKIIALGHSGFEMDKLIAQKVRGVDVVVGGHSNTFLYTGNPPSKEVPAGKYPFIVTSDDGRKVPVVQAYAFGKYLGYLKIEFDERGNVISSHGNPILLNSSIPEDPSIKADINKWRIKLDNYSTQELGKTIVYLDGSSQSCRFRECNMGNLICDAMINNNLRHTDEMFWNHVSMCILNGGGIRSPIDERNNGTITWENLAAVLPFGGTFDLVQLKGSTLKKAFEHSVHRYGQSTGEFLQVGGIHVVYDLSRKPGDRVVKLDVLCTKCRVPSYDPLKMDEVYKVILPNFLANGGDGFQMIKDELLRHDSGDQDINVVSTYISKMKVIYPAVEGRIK

| IC50 [nM] | Structure (SMILES) |
| --- | --- |
| 0.6 | C#C[C@@]1(O)[C@@H](COC(Cc2ccccc2)(C(=O)O)C(=O)O)O[C@@H](n2cnc3c(N(C)CC4CC4)nc(Cl)nc32)[C@@H]1O [Example 75, 2-benzyl-2-(((2R,3S,4R,5R)-5-(2-chloro-6-((cyclopropylmethyl)-(methyl)amino)-9H-purin-9-yl)-3-ethynyl-3,4-dihydroxytetrahydrofuran-2-yl)methoxy)malonic acid] |
| 16 | C#C[C@@]1(O)[C@@H](COC(Cc2ccc(N3CCCNC3=O)cc2)(C(=O)O)C(=O)O)O[C@@H](n2ccc(=O)[nH]c2=O)[C@@H]1O [Example 134, 2-(((2R,3S,4R,5R)-5-(2,4-dioxo-3,4-dihydropyrimidin-1(2H)-yl)-3-ethynyl-3,4-dihydroxytetrahydrofuran-2-yl)methoxy)-2-(4-(2-oxotetrahydropyrimidin-1 (2H)-yl)benzyl)malonic acid] |
| 0.8 | C#C[C@@]1(O)[C@@H](COC(Cc2ccccc2)(C(=O)O)C(=O)O)O[C@@H](n2cnc3c(NCc4ccc(F)cc4)nc(Cl)nc32)[C@@H]1O [Example 68, 2-benzyl-2-(((2R,3S,4R,5R)-5-(2-chloro-6-((4-fluorobenzyl)amino)-9H-purin-9-yl)-3-ethynyl-3,4-dihydroxytetrahydrofuran-2-yl)methoxy)malonic acid] |
| 2 | C#C[C@@]1(O)[C@@H](COC(Cc2ccccc2)(C(=O)O)C(=O)O)O[C@@H](n2cnc3c(N(C)C4CC4)nc(Cl)nc32)[C@@H]1O [Example 105, 2-benzyl-2-(((2R,3S,4R,5R)-5-(2-chloro-6-(cyclopropyl(methyl)amino)-9H-purin-9-yl)-3-ethynyl-3,4-dihydroxytetrahydrofuran-2-yl)methoxy)malonic acid] |
| 0.5 | C#C[C@@]1(O)[C@@H](COC(Cc2ccccc2)(C(=O)O)C(=O)O)O[C@@H](n2cnc3c(N(C)C4CC(O)C4)nc(Cl)nc32)[C@@H]1O (stereo partly drawn) [Example 48, 2-benzyl-2-(((2R,3S,4R,5R)-5-(2-chloro-6-((3-hydroxycyclobutyl)-(methyl)amino)-9H-purin-9-yl)-3-ethynyl-3,4-dihydroxytetrahydrofuran-2-yl)methoxy)malonic acid] |
| 0.08 | C#C[C@@]1(O)[C@@H](COC(Cc2ccc(N3CCCN(C)C3=O)cc2)(C(=O)O)C(=O)O)O[C@@H](n2cnc3c(NC)nc(Cl)nc32)[C@@H]1O [Example 148, 2-(((2R,3S,4R,5R)-5-(2-chloro-6-(methylamino)-9H-purin-9-yl)-3-ethynyl-3,4-dihydroxytetrahydrofuran-2-yl)methoxy)-2-(4-(3-methyl-2-oxotetrahydropyrimidin-1 (2H)-yl)benzyl)malonic acid] |
| 0.6 | C#C[C@@]1(O)[C@@H](COC(Cc2ccccc2)(C(=O)O)C(=O)O)O[C@@H](n2cnc3c(NCc4ccc(Cl)cc4)nc(Cl)nc32)[C@@H]1O [Example 87, 2-benzyl-2-(((2R,3S,4R,5R)-5-(2-chloro-6-((4-chlorobenzyl)amino)-9H-purin-9-yl)-3-ethynyl-3,4-dihydroxytetrahydrofuran-2-yl)methoxy)malonic acid] |
| 1.2 | C#C[C@@]1(O)[C@@H](COC(Cc2ccccc2)(C(=O)O)C(=O)O)O[C@@H](n2cnc3c(N4CCC4)nc(Cl)nc32)[C@@H]1O [Example 88, 2-(((2R,3S,4R,5R)-5-(6-(azetidin-1-yl)-2-chloro-9H-purin-9-yl)-3-ethynyl-3,4-dihydroxytetrahydrofuran-2-yl)methoxy)-2-benzylmalonic acid] |
| 3 | C#C[C@@]1(O)[C@@H](COC(Cc2ccccc2)(C(=O)O)C(=O)O)O[C@@H](n2cnc3c(N4CCC[C@@H]4CO)nc(Cl)nc32)[C@@H]1O [Example 103, 2-benzyl-2-(((2R,3S,4R,5R)-5-(2-chloro-6-((R)-2-(hydroxymethyl)-pyrrolidin-1-yl)-9H-purin-9-yl)-3-ethynyl-3,4-dihydroxytetrahydrofuran-2-yl)methoxy)malonic acid] |
